Laboratory results: patent publication EP0876161B1, “CONTRAST MEDIA” (priority 1996, dated 1997)

What was measured:
mice = assay: Maximum tolerated dose (MTD) in mice of formulated complex solution; format: in vivo; settings: complex given as the formulated solution
[1] = Osmolality of the formulated complex solution; format: physicochemical
[2] = Osmolality determined in water, compared to the EGTA complex; format: physicochemical; settings: concentration 41 mM

In the case of (NMG)4[(W3SO3)2(HO-PDTA)3], the “maximum tolerated dose (MTD)” value (mice) is reported as ~2.17 mmoles complex/kg and the osmolality ([1]; 153mM solution, pH 6.98) is reported as 499 mmol/kg.
With “Na4[(W3S3O)2(EGTA)3] [Na4[(W3S3O)2(EGTA)3] .6H2O]” the “maximum tolerated dose (MTD)” value (mice) was ~3.95 mmoles complex/kg and the osmolality ([1]; 121 mM solution, pH 6.95) was 517 mmol/kg.
With “Na4[(W3SO3)2(BDTA)3] [Na4[(W3SO3)2(BDTA)3].12H2O]” the “maximum tolerated dose (MTD)” value (mice) was ~ 2.55 mmoles complex/kg and the osmolality ([1]; 120mM solution, pH 7.4) was 459 mmol/kg.
With “Na4[(W3SO3)2(EGTA)3] [Na4[(W3SO3)2(EGTA)3].10H2O]” the “maximum tolerated dose (MTD)” value (mice) was ~7.75 mmoles complex/kg, the osmolality ([1]; 168 mM solution, pH 6.65) was 685 mmol/kg and the osmolality [2] was 199 mmol/kg.
With “Na4[(W3SO3)2(MeO-PDTA)3] [Na4[(W3SO3)2(MeO-PDTA)3] . 7H2O]” the osmolality ([1]; 140mM solution, pH 6.5) was 563 mmol/kg.
With “Na4[(W3SO3)2(OBETA)3] [Na4[(W3SO3)2(OBETA)3].10H2O]” the “maximum tolerated dose (MTD)” value (mice) was -4.35 mmoles complex/kg and the osmolality ([1]; 107 mM solution, pH 7.03) was 498 mmol/kg.
In the case of “Na4[(W3SO3)2(PDTA)3] [Na4[(W3SO3)2(PDTA)3] 11H2O]”, the “maximum tolerated dose (MTD)” value (mice) is reported as > 6.5 mmoles complex/kg and the osmolality ([1]; 79mM solution, pH 6.6) is reported as 311 mmol/kg.
